Results taken from article PMC6627067, “Probing Multi-Target Action of Phlorotannins as New Monoamine Oxidase Inhibitors and Dopaminergic Receptor Modulators with the Potential for Treatment of Neuronal Disorders” (Marine Drugs, 2019).
Several values for one entry are separate records, joined by “and”; a condition that tells them apart may be missing. Equal values may be shown once. Read-outs that look alike come from different tables or passages of the source. Each block holds one compound with its values, some of them ahead of it.

Tests used:
[1] = target: T1, hMAO-A (Homo sapiens, UniProt P21397); parameters: method as in PMID 28251489; conditions: cited from earlier work
T1 sequence (P21397 1-527): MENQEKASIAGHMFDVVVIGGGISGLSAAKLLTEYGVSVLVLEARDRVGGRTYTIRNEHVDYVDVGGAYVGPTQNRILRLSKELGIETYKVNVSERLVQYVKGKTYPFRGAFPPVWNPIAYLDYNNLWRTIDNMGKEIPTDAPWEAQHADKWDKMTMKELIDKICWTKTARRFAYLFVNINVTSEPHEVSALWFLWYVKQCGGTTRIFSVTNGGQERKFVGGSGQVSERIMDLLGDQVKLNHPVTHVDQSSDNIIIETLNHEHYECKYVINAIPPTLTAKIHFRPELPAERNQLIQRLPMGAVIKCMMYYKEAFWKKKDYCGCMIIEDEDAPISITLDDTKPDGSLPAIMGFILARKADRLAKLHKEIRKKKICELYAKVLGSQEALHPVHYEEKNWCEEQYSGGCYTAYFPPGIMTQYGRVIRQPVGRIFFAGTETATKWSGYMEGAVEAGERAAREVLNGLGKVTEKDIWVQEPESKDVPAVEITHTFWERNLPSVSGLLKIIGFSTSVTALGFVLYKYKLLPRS

[2] = target: hNK1 (TACR1) (Homo sapiens, UniProt P25103); assay: GPCR cell-based functional assay, intracellular Ca2+ level, NK1; conditions: for % Stimulation of control agonist response, hNK1: agonist effect at 100 µM
Sequence of hNK1 (TACR1) (P25103 whole entry): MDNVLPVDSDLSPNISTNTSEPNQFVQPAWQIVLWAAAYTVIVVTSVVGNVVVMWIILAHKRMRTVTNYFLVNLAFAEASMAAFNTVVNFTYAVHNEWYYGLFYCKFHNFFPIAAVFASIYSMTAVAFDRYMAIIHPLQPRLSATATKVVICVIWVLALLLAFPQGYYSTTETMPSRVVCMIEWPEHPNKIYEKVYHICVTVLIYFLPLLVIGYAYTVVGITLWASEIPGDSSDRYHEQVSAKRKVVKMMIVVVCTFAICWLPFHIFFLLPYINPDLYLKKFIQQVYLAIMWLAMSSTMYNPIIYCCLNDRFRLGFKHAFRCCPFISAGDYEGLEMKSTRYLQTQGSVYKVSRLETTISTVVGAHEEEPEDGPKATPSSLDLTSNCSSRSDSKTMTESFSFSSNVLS

[3] = target: T2, hD1 (DRD1) (Homo sapiens, UniProt P21728); assay: cell-based; conditions: read-out: % Inhibition of control agonist response, hD1
T2 sequence (P21728 whole entry): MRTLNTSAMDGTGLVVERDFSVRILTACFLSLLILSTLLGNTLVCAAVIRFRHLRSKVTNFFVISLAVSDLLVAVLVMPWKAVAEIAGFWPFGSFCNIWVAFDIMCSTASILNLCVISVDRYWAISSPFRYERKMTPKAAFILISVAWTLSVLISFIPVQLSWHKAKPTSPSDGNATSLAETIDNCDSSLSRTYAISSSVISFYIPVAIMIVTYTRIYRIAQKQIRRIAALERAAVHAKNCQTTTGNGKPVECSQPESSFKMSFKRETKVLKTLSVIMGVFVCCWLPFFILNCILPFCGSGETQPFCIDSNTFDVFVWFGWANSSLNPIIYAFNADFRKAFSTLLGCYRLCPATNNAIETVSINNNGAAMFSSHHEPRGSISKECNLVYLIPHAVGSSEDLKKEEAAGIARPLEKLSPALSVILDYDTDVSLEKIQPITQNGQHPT

[4] = target: T3, h5-HT1A (HTR1A) (Homo sapiens, UniProt P08908); assay: GPCR cell-based functional assay, intracellular Ca2+ level, 5-HT1A
T3 sequence (P08908 1-422): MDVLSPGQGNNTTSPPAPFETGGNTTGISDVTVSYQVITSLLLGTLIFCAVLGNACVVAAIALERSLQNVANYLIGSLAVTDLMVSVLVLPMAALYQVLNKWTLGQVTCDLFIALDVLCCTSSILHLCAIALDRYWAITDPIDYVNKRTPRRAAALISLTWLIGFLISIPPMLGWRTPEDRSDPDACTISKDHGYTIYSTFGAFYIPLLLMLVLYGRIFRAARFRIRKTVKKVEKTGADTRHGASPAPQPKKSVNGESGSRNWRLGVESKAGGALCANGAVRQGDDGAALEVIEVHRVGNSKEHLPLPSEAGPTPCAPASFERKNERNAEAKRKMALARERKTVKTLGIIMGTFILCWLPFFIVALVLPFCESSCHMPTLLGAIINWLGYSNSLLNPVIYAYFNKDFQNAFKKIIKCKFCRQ

[5] = parameters: method as in PMID 25996411; conditions: cited from earlier work
[6] = target: T4, hM5 (CHRM5) (Homo sapiens, UniProt P08912); assay: GPCR cell-based functional assay, intracellular Ca2+ level, M5
T4 sequence (P08912 1-532): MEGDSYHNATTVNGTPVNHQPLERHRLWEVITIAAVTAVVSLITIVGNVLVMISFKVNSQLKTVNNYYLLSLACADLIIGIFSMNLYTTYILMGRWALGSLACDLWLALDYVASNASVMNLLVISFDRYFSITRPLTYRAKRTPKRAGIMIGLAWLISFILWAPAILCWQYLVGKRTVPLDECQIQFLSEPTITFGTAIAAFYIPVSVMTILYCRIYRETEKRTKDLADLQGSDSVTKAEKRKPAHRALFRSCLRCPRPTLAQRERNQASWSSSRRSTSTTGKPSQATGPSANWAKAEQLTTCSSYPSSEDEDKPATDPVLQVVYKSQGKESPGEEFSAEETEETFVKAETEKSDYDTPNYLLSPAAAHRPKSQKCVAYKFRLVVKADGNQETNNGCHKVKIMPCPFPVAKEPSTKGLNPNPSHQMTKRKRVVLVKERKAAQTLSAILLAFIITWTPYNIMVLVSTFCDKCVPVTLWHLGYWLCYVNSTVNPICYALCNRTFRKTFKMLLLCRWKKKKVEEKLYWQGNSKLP

[7] = target: T2, hD1 (DRD1); conditions: agonist effect at 100 µM
[8] = target: T5, hMAO-B (Homo sapiens, UniProt P27338); parameters: method as in PMID 28251489; conditions: cited from earlier work
T5 sequence (P27338 1-520): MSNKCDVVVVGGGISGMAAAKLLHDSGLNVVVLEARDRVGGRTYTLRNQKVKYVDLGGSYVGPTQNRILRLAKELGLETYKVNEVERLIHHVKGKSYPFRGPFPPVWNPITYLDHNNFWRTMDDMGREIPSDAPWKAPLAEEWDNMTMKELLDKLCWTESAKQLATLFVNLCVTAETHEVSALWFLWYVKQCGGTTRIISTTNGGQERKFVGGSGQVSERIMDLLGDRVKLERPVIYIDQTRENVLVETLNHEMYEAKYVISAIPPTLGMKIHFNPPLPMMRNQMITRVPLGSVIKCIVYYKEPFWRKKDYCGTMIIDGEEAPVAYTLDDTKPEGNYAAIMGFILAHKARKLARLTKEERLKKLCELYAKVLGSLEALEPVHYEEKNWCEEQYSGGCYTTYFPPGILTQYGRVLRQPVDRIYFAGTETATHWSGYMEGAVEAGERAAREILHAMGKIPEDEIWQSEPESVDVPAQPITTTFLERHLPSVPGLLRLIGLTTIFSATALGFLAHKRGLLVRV

[9] = target: T6, hD4 (DRD4) (Homo sapiens, UniProt P21917); conditions: for % Stimulation of control agonist response, hD4: agonist effect at 100 µM
T6 sequence (P21917 1-419): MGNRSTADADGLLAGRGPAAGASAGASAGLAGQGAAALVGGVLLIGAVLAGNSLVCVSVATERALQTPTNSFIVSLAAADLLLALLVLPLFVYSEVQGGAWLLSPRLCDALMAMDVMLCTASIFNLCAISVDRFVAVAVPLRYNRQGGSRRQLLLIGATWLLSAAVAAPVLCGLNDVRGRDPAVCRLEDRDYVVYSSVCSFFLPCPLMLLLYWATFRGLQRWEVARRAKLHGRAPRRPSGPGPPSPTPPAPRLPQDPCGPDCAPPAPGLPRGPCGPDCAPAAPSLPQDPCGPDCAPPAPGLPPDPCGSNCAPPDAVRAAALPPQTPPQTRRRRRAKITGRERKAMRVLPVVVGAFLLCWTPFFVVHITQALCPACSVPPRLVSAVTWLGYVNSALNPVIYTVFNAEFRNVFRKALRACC

[10] = target: hV1A (AVPR1A) (Homo sapiens, UniProt P37288); assay: GPCR cell-based functional assay, intracellular Ca2+ level, V1A; conditions: for % Stimulation of control agonist response, hV1A: agonist effect at 100 µM
Sequence of hV1A (AVPR1A) (P37288 whole entry): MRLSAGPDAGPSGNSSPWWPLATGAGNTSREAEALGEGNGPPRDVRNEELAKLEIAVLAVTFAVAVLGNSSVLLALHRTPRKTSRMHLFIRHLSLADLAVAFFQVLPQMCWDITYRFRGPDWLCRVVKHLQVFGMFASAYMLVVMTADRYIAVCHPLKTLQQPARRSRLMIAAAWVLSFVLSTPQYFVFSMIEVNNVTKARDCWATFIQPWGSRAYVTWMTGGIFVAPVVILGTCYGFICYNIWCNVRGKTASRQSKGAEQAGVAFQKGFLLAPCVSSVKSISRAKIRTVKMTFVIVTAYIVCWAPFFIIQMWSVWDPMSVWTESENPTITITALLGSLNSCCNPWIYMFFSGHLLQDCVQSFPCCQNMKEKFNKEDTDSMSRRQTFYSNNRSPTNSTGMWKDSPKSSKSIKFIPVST

[11] = target: T7, hD3 (DRD3) (Homo sapiens, UniProt P35462); conditions: agonist effect at 100 µM
T7 sequence (P35462 whole entry): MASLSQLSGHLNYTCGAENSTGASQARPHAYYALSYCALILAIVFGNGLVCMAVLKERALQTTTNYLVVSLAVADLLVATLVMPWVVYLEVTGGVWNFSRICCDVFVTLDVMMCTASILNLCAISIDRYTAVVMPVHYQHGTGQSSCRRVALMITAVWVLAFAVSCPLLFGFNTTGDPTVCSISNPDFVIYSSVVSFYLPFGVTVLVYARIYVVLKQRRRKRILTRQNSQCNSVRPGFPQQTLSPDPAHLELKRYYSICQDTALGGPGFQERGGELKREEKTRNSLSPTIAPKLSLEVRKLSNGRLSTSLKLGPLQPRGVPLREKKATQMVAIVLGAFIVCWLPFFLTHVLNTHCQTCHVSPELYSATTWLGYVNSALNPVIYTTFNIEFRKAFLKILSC

[12] = target: T7, hD3 (DRD3); assay: cell-based
[13] = target: T5, hMAO-B; assay: hMAO-B inhibition, chemiluminescent MAO-Glo assay and kinetic analysis; format: biochemical; conditions: recombinant hMAO-B; mean ± SD, n = 3
[14] = target: T1, hMAO-A; assay: hMAO-A inhibition, chemiluminescent MAO-Glo assay and kinetic analysis; format: biochemical

% Stimulation of control agonist response, hNK1 [2]: 54.70 ± 1.41 ^B %
% Stimulation of control agonist response, hNK1 ([2]; listed as dieckol): 54.70%
inhibition at 100 µM ([2]; antagonist effect at 100 µM, read-out: % Inhibition of control agonist response, hNK1): 77.7%
inhibition at 100 µM [3]: 60.6%
% Stimulation of control agonist response, h5-HT1A ([4]; agonist effect at 100 µM): 1.75 ± 0.64 ^A %
inhibition at 100 µM ([4]; antagonist effect at 100 µM, read-out: % Inhibition of control agonist response, h5-HT1A): 76.8%
% Stimulation of control agonist response, hM5 ([6]; agonist effect at 100 µM): 7.60 ± 17.11 ^AB %
inhibition at 100 µM ([6]; antagonist effect at 100 µM, read-out: % Inhibition of control agonist response, hM5): 19.6%
% Stimulation of control agonist response, hD1 [7]: 1.05 ± 0.21 ^A %
EC50 [9]: 34 ± 8.62 µM
% Stimulation of control agonist response, hD4 [9]: 74.43 ± 6.37 ^B %
% Stimulation of control agonist response, hD4 ([9]; listed as dieckol): 74.43 ± 6.37%
inhibition at 100 µM ([9]; read-out: % Inhibition of control agonist response, hD4): -5.35%
% Stimulation of control agonist response, hV1A [10]: 64.20 ± 0.14 ^A %
% Stimulation of control agonist response, hV1A ([10]; listed as dieckol): 64.20 ± 0.14% and 64.2%
inhibition at 100 µM ([10]; antagonist effect at 100 µM, read-out: % Inhibition of control agonist response, hV1A): 46.2%
% Stimulation of control agonist response, hD3 [11]: 81.10 ± 0.66 ^B %
% Stimulation of control agonist response, hD3 ([11]; listed as dieckol): 81.10 ± 0.66%
EC50 [12]: 44.2 ± 3.25 µM
inhibition at 100 µM ([12]; read-out: % Inhibition of control agonist response, hD3): -2.5%
Structure (SMILES): Oc1cc(O)cc(Oc2c(O)cc(O)c3c2Oc2c(O)cc(Oc4c(O)cc(Oc5c(O)cc(O)c6c5Oc5c(O)cc(O)cc5O6)cc4O)cc2O3)c1 [Dieckol, dieckol]
Ki [1]: 20.3 µM
SI (selective index) ([1]; ratio of hMAO-A IC50/hMAO-B IC50): 0.26
IC50 ([1]; recombinant hMAO-A, obtained from the literature): 11.4 ± 1.06 µM
BBB penetration [5]: effectively penetrate the BBB
Ki [8]: 18.5 µM
IC50 ([8]; recombinant hMAO-B, obtained from the literature): 43.4 ± 0.73 µM

Structure (SMILES): Oc1cc(O)c2oc3cc(O)c4oc5cc(O)cc(O)c5oc4c3oc2c1 [Dioxinodehydroeckol, dioxinodehydroeckol]
IC50 [13]: > 300 µM
IC50 hMAO-B [13]: no inhibitory activity
IC50 [14]: > 300 µM
IC50 hMAO-A ([14]; recombinant hMAO-A, mean ± SD, n = 3): no inhibitory activity
